Each block holds one compound with its values, some of them ahead of it. The source made the active and inactive calls. No cut-off for these calls is given here.
Key:
[1] = test system: MDA-MB-231; experiment: Antiproliferative activity against human drug tolerant MDA-MB-231/lapatinib cells assessed as inhibition of cell growth in measured after 72 hrs by MTT assay; assay type: functional, cell-based; conditions: MDA-MB-231, 72 h
[2] = test system: MCF7; experiment: Antiproliferative activity against human MCF7 cells assessed as inhibition of cell growth measured after 72 hrs by MTT assay; assay type: functional, cell-based; conditions: MCF7, 72 h
[3] = Resistant factor, ratio of IC50 for antiproliferative activity against drug-tolerant human MDA-MB-231 cells to IC50 for human MDA-MB-231 cells; assay type: functional
[4] = test system: HUVEC; experiment: Antiproliferative activity against human HUVEC cells assessed as inhibition of cell growth in measured after 72 hrs by MTT assay; assay type: cell-based
[5] = test system: MDA-MB-231; experiment: Antiproliferative activity against human MDA-MB-231 cells assessed as inhibition of cell growth measured after 72 hrs by MTT assay; assay type: functional, cell-based; conditions: MDA-MB-231, 72 h
[6] = test system: MDA-MB-231; experiment: Antiproliferative activity against drug-tolerant human MDA-MB-231/lapatinib cells assessed as CD44-positive cells measured after 24 hrs by MTT assay; assay type: functional, cell-based; conditions: MDA-MB-231, 24 h
[7] = test system: MDA-MB-231; experiment: Inhibition of Wnt/beta-Catenin signaling in drug-tolerant human MDA-MB-231/lapatinib cells assessed as reduction in p-GSK3beta level at 20 uM incubated for 24 hrs by Western blot analysis
[8] = test system: MDA-MB-231; experiment: Antiproliferative activity against drug-tolerant human MDA-MB-231/lapatinib cells assessed as CD44+/CD24- cells measured at 20 uM after 24 hrs by MTT assay; assay type: functional
[9] = test system: MDA-MB-231; experiment: Inhibition of cell migration in human drug-tolerant MDA-MB-231/lapatinib cells at 20 uM; assay type: functional
[10] = test system: MDA-MB-231; experiment: Inhibition of Wnt/beta-Catenin signaling in drug-tolerant human MDA-MB-231/lapatinib cells assessed as reduction in beta-catenin level at 20 uM incubated for 24 hrs by Western blot analysis
[11] = test system: MDA-MB-231; experiment: Inhibition of cell stemness in human drug-tolerant MDA-MB-231/lapatinib cells assessed as inhibition of Kif4 expression at 20 uM after 24 hrs by qRT-PCR analysis; assay type: functional, cell-based
[12] = test system: MDA-MB-231; experiment: Induction of apoptosis in drug-tolerant human MDA-MB-231 cells/lapatinib cells assessed as apoptotic rate at 20 uM measured after 24 hrs by flow cytometry; assay type: functional
[13] = molecular target: T1, Aldehyde dehydrogenase 1A1 (Homo sapiens, UniProt P00352); experiment: Inhibition of ALDH1A1 in human drug-tolerant MDA-MB-231/lapatinib cells assessed as after 24 hrs
T1 sequence (P00352 whole entry): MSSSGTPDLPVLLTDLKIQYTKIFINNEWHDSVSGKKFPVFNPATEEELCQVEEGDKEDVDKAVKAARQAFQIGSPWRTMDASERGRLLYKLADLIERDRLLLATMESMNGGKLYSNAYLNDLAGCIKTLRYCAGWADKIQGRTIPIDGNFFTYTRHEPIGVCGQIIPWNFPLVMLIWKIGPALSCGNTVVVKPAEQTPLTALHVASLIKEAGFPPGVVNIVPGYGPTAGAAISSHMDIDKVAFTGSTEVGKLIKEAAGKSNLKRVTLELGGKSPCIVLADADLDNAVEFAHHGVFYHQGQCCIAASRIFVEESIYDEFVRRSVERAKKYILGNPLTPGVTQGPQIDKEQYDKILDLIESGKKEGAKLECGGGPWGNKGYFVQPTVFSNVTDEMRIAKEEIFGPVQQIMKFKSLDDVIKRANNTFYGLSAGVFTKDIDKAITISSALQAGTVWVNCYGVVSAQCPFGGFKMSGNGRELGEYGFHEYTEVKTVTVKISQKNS

[14] = molecular target: T2, Epidermal growth factor receptor (Homo sapiens, UniProt P00533); experiment: Inhibition of human EGFR in human MDA-MB-231 cells assessed as inhibition of phosphorylation Akt1/2/3 at Ser473 of measured after 24 hrs by Western blot analysis; assay type: cell-based; conditions: dose 5-20 µM
[15] = molecular target: T2, Epidermal growth factor receptor; experiment: Inhibition of human EGFR phosphorylation in human MDA-MB-231 cells measured after 24 hrs by Western blot analysis; assay type: cell-based; conditions: dose 5-20 µM
[16] = test system: MDA-MB-231; experiment: Potency index, ratio of lapatinib IC50 to test compound IC50 for induction of apoptosis in drug-tolerant human MDA-MB-231 cells/lapatinib cells assessed as apoptotic rate at 20 uM measured after 24 hrs by flow cytometry; assay type: functional
[17] = test system: MDA-MB-231; experiment: Inhibition of colony formation in human drug-tolerant MDA-MB-231/lapatinib cells at 5 uM measured after 24 hrs; assay type: functional
[18] = test system: MDA-MB-231; experiment: Antitumor activity against drug-tolerant human MDA-MB-231/lapatinib cells injected in BALB/c mouse assessed as tumor development measured after 8 weeks; assay type: functional, cell-based
[19] = test system: MDA-MB-231; experiment: Inhibition of Wnt/beta-Catenin signaling in drug-tolerant human MDA-MB-231/lapatinib cells assessed as reduction in S100A4 mRNA level at 20 uM incubated for 24 hrs by qRT-PCR analysis
[20] = test system: MDA-MB-231; experiment: Inhibition of cell stemness in human drug-tolerant MDA-MB-231/lapatinib cells assessed as inhibition of SOX-2 expression at 20 uM after 24 hrs by qRT-PCR analysis; assay type: functional, cell-based
[21] = test system: MDA-MB-231; experiment: Inhibition of Wnt/beta-Catenin signaling in drug-tolerant human MDA-MB-231/lapatinib cells assessed as reduction in cyclin D1 mRNA level at 20 uM incubated for 24 hrs by qRT-PCR analysis
[22] = molecular target: T2, Epidermal growth factor receptor; experiment: Inhibition of human EGFR in human drug-tolerant MDA-MB-231/lapatinib cells assessed as inhibition of phosphorylation Akt1/2/3 at Ser473 of measured after 24 hrs by Western blot analysis; conditions: dose 5-20 µM
[23] = Octanol/water partition coefficient, log P of the compound by shake flask method based thermodynamic solubility assay; assay type: physicochemical
[24] = test system: MDA-MB-231; experiment: Cell cycle arrest in human drug-tolerant MDA-MB-231/lapatinib cells assessed as increase in accumulation at S phase at 20 uM incubated for 24 hrs […]; assay type: functional, cell-based
[25] = test system: MDA-MB-231; experiment: Cell cycle arrest in human MDA-MB-231 cells assessed as increase in accumulation at S phase at 20 uM incubated for 24 hrs by PI staining based flow cytometry; assay type: functional
[26] = test system: MDA-MB-231; experiment: Inhibition of cell stemness in drug-tolerant human MDA-MB-231/lapatinib cells assessed as inhibition of Notch expression at 20 uM after 24 hrs by flow cytometry; assay type: functional, cell-based
[27] = test system: MDA-MB-231; experiment: Inhibition of cell stemness in drug-tolerant human MDA-MB-231/lapatinib cells assessed as inhibition of Jagged expression at 20 uM after 24 hrs by flow cytometry; assay type: functional, cell-based
[28] = test system: MDA-MB-231; experiment: Inhibition of Wnt/beta-Catenin signaling in drug-tolerant human MDA-MB-231/lapatinib cells assessed as reduction in c-Myc mRNA level at 20 uM incubated for 24 hrs by qRT-PCR analysis
[29] = test system: MDA-MB-231; experiment: Inhibition of cell stemness in human drug-tolerant MDA-MB-231/lapatinib cells assessed as inhibition of CD44+/CD24- expression at 20 uM after 24 hrs by flow cytometry analysis; assay type: functional
[30] = test system: MDA-MB-231; experiment: Inhibition of Wnt/beta-Catenin signaling in drug-tolerant human MDA-MB-231/lapatinib cells assessed as reduction in MMP7 mRNA level at 20 uM incubated for 24 hrs by qRT-PCR analysis; assay type: tissue-based
[31] = test system: MDA-MB-231; experiment: Inhibition of cell stemness in human drug-tolerant MDA-MB-231/lapatinib cells assessed as inhibition of OCT4 expression at 20 uM after 24 hrs by qRT-PCR analysis; assay type: functional, cell-based
[32] = test system: MDA-MB-231; experiment: Cell cycle arrest in human MDA-MB-231 cells assessed as accumulation at G2-M phase at 20 uM incubated for 24 hrs by PI staining based flow cytometry; assay type: functional
[33] = test system: MDA-MB-231; experiment: Induction apoptosis in MDA-MB-231/ lapatinib cells assessed as apoptotic cells at 20 uM measured after 24 hrs by propidium iodide staining based flow cytometric analysis; assay type: functional, cell-based; conditions: Homo sapiens
[34] = molecular target: T2, Epidermal growth factor receptor; experiment: Inhibition of exogenous EGFR (unknown origin)
[35] = test system: MDA-MB-231; experiment: Inhibition of cell invasion in human MDA-MB-231/lapatinib cells at 20 uM; assay type: functional
[36] = test system: MDA-MB-231; experiment: Cell cycle arrest in human drug-tolerant MDA-MB-231/lapatinib cells assessed as accumulation at G2-M phase at 20 uM incubated for 24 hrs by PI staining based flow cytometry; assay type: functional
[37] = molecular target: T2, Epidermal growth factor receptor; experiment: Inhibition of human EGFR in human MDA-MB-231 cells assessed as inhibition of phosphorylation ERK1/2 at T202/Y204 of measured after 24 hrs by Western blot analysis; assay type: cell-based; conditions: dose 5-20 µM
[38] = test system: MDA-MB-231; experiment: Inhibition of Wnt/beta-Catenin signaling in drug-tolerant human MDA-MB-231/lapatinib cells assessed as increase in nuclear expression of p-beta-catenin level at 20 uM incubated for 24 hrs by Western blot analysis
[39] = molecular target: T2, Epidermal growth factor receptor; experiment: Inhibition of human EGFR phosphorylation in human drug-tolerant MDA-MB-231/lapatinib cells measured after 24 hrs by Western blot analysis; conditions: dose 5-20 µM
[40] = molecular target: T2, Epidermal growth factor receptor; experiment: Inhibition of human EGFR in human drug-tolerant MDA-MB-231/lapatinib cells assessed as inhibition of phosphorylation ERK1/2 at T202/Y204 of measured after 24 hrs by Western blot analysis; conditions: dose 5-20 µM

T2 sequence (P00533 whole entry): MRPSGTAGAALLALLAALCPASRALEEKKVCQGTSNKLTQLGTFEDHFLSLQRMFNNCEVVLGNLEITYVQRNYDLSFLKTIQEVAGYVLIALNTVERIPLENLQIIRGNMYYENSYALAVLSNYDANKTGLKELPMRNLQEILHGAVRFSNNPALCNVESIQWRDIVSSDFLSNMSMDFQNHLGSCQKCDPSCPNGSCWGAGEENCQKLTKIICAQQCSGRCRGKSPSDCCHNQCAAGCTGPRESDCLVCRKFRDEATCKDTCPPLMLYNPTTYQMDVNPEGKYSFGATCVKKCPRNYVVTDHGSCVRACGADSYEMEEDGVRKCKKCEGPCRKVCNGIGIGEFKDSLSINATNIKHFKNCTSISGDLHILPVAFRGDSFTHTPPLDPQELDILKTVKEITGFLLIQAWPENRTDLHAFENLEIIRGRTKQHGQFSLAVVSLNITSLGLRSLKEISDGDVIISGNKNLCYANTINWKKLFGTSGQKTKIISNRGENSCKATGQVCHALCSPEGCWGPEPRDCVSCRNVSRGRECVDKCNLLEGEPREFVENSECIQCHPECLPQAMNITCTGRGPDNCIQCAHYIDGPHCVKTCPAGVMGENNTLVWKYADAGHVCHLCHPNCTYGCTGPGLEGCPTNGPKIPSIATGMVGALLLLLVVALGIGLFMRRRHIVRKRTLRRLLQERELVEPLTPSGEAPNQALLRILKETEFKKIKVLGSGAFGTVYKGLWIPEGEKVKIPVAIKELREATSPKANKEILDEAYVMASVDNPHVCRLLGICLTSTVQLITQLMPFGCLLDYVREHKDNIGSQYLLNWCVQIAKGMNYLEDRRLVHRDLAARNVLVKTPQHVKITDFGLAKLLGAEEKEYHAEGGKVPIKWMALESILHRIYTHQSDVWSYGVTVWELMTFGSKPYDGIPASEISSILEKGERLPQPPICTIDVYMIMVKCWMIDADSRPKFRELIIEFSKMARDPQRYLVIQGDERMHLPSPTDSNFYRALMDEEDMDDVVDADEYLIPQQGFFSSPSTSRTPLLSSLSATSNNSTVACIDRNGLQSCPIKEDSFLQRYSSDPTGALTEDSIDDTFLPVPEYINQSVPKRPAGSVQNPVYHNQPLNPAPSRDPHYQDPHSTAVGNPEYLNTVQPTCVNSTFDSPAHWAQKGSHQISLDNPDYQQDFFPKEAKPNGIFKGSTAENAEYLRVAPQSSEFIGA

- IC50 [2]: 6.38 µM
- IC50 [5]: 2.98 µM
SMILES: CS(=O)(=O)CCN(Cc1ccc(-c2ccc3ncnc(Nc4ccc(OCc5cccc(F)c5)c(Cl)c4)c3c2)o1)C(=O)CCC(=O)OCCN1CCN(CCCN2c3ccccc3Sc3ccc(C(F)(F)F)cc32)CC1
- IC50 [1]: 3.42 µM
- Ratio IC50 [3]: 1.17
- IC50 [4]: 39.6 µM

- IC50 [2]: 12.6 µM
- IC50 [5]: 5.86 µM
SMILES: CS(=O)(=O)CCNCc1ccc(-c2ccc3ncnc(Nc4ccc(OCc5cccc(F)c5)c(Cl)c4)c3c2)o1 [LAPATINIB]
- IC50 [6]: 30.8 µM
- IC50 [1]: 29.4 µM
- inhibition [7]: Active
- inhibition at 20 µM [8]: 15.7%
- IC50 [4]: 47.3 µM
- inhibition at 20 µM [9]: 52.6%
- inhibition [10]: Active

- inhibition [14]: Active
- inhibition [15]: Dose-Dependent Effect
- IC50 [2]: 3.62 µM
- logP [23]: 2.49
- IC50 [34]: 0.0105 µM
- inhibition [37]: Active
- IC50 [5]: 1.54 µM
SMILES: CS(=O)(=O)CCN(Cc1ccc(-c2ccc3ncnc(Nc4ccc(OCc5cccc(F)c5)c(Cl)c4)c3c2)o1)C(=O)CCC(=O)OCCN1CCN(CCCN2c3ccccc3Sc3ccc(Cl)cc32)CC1
- inhibition [11]: Active
- Activity [12]: 72%
- IC50 [13]: 0.0864 µM
- IC50 [6]: 0.56 µM
- Ratio IC50 [16]: 2.23
- inhibition at 5 µM [17]: 10.9%
- Activity [18]: Active
- inhibition [19]: Active
- IC50 [1]: 1.03 µM
- inhibition [20]: Active
- inhibition [21]: Active
- inhibition [22]: Dose-Dependent Effect
- Activity [24]: Active
- Activity [25]: Active
- inhibition [26]: Active
- inhibition [27]: Active
- inhibition [28]: Active
- inhibition at 20 µM [29]: 0.56%
- inhibition [7]: Active
- inhibition [30]: Active
- Ratio IC50 [3]: 0.67
- inhibition [31]: Active
- Activity [32]: Active
- Activity [33]: Active
- inhibition at 20 µM [8]: 72.9%
- IC50 [4]: 89.2 µM
- inhibition at 20 µM [35]: 56.3%
- Activity [36]: Active
- inhibition [38]: Active
- inhibition [39]: Dose-Dependent Effect
- inhibition at 20 µM [9]: 13.2%
- inhibition [10]: Active
- inhibition [40]: Dose-Dependent Effect

- IC50 [2]: 7.38 µM
- IC50 [5]: 4.51 µM
SMILES: CS(=O)(=O)CCN(Cc1ccc(-c2ccc3ncnc(Nc4ccc(OCc5cccc(F)c5)c(Cl)c4)c3c2)o1)C(=O)CCCC(=O)OCCN1CCN(CCCN2c3ccccc3Sc3ccc(Cl)cc32)CC1
- IC50 [1]: 5.74 µM
- Ratio IC50 [3]: 1.27
- IC50 [4]: 100 µM

SMILES: OCCN1CCN(CCCN2c3ccccc3Sc3ccc(C(F)(F)F)cc32)CC1 [FLUPHENAZINE]
- IC50 [1]: 18.6 µM
- IC50 [2]: 24.6 µM
- Ratio IC50 [3]: 0.86
- IC50 [4]: 38 µM
- IC50 [5]: 16.7 µM
